Values of other authors in paper PMC9516332 (Frontiers in Oncology, 2022).

Assays:
[1] = target: panel of 255 wild-type kinases (Homo sapiens, UniProt Q02763); details: kinase TIE2; 1 µmol/L single concentration; ref DOI: 10.1371/journal.pone.0092146; cited from earlier work
[2] = target: panel of 255 wild-type kinases (Homo sapiens, UniProt Q13882); details: BRK kinase assay; 1 µmol/L single concentration; ref DOI: 10.1371/journal.pone.0092146; cited from earlier work
[3] = target: T1, panel of 255 wild-type kinases (Homo sapiens, UniProt Q9UF33); details: kinase EPHA6; 1 µmol/L single concentration; ref DOI: 10.1371/journal.pone.0092146; cited from earlier work
T1 sequence (Q9UF33 23-1036): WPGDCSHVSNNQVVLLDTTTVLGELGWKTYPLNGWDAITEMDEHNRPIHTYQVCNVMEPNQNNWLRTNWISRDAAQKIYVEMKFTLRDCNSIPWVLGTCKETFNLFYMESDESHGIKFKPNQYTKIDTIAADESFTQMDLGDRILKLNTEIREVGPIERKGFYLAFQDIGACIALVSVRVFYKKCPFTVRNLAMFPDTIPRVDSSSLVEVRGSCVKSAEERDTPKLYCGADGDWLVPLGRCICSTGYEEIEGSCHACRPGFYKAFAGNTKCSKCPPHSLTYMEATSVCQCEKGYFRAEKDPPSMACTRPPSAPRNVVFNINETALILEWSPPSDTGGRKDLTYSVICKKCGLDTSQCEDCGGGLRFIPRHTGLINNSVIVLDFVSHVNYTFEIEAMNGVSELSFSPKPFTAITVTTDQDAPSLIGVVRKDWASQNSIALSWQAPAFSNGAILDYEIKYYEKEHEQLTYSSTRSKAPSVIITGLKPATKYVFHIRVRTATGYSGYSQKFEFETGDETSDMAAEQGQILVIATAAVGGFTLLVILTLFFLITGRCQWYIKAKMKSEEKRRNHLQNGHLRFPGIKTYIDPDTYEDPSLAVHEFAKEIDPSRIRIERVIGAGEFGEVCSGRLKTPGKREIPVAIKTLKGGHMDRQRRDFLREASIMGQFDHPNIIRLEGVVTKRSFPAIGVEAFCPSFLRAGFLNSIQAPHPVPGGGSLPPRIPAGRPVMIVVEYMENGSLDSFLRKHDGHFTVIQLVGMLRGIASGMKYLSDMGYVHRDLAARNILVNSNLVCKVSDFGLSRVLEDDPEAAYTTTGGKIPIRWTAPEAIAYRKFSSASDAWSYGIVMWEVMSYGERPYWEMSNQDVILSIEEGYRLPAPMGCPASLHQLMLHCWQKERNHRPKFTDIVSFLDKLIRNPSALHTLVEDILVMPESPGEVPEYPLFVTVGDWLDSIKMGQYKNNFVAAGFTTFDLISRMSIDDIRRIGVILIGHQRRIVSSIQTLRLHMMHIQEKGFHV

[4] = target: panel of 255 wild-type kinases (Homo sapiens, UniProt P23458); details: kinase JAK1; 1 µmol/L single concentration; ref DOI: 10.1371/journal.pone.0092146; cited from earlier work
[5] = target: panel of 255 wild-type kinases (Homo sapiens, UniProt P48729); details: kinase CK1α; 1 µmol/L single concentration; ref DOI: 10.1371/journal.pone.0092146; cited from earlier work
[6] = target: panel of 255 wild-type kinases (Homo sapiens, UniProt P06213); details: kinase INSR; 1 µmol/L single concentration; ref DOI: 10.1371/journal.pone.0092146; cited from earlier work
[7] = target: panel of 255 wild-type kinases (Homo sapiens, UniProt P11802); details: CDK4/CycD3 kinase assay; 1 µmol/L single concentration; ref DOI: 10.1371/journal.pone.0092146; cited from earlier work
[8] = target: T2, panel of 255 wild-type kinases (Homo sapiens, UniProt P51817); details: kinase PRKX; 1 µmol/L single concentration; ref DOI: 10.1371/journal.pone.0092146; cited from earlier work
T2 sequence (P51817 1-358): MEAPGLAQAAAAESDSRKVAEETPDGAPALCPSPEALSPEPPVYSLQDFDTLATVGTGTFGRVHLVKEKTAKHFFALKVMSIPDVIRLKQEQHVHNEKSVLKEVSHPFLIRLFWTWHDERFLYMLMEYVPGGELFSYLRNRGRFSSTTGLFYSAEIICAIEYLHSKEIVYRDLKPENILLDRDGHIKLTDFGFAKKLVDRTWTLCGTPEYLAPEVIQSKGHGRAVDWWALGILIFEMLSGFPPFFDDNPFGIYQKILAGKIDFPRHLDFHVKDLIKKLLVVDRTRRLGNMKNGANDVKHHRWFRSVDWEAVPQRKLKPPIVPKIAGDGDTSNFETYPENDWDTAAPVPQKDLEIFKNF

[9] = target: panel of 255 wild-type kinases (Homo sapiens, UniProt P27361); details: kinase Erk1; 1 µmol/L single concentration; ref DOI: 10.1371/journal.pone.0092146; cited from earlier work
[10] = target: panel of 255 wild-type kinases (Homo sapiens, UniProt Q16816); details: kinase PHKG1; 1 µmol/L single concentration; ref DOI: 10.1371/journal.pone.0092146; cited from earlier work

CCCS(=O)(=O)Nc1ccc(F)c(C(=O)c2c[nH]c3ncc(-c4ccc(Cl)cc4)cc23)c1F [vemurafenib]
%-inhibition at 1 µmol/L, TIE2 [1]: -2.42% | %-inhibition BRK [2]: 98% | %-inhibition at 1 µmol/L, EPHA6 [3]: 37% | %-inhibition at 1 µmol/L, JAK1 [4]: 46% | %-inhibition at 1 µmol/L, CK1α [5]: -4.34% | %-inhibition at 1 µmol/L, INSR [6]: 17% | %-inhibition CDK4/CycD3 [7]: -3.26% | %-inhibition at 1 µmol/L, PRKX [8]: -3.45% | %-inhibition at 1 µmol/L, Erk1 [9]: 0.0533% | %-inhibition at 1 µmol/L, PHKG1 [10]: -0.913%
